{"source": "patent US9018168B2", "about": "“Therapeutic method for treating congestive heart failure” (Madeleine Pharmaceuticals Pty Ltd, priority 2010, dated 2015)", "key": {"[1]": {"details": "cited from earlier work"}, "[2]": {"system": "subjects with chronic CHF or ADCHF (NYHA class III - NYHA class IV)", "assay": "Example 1: treatment of ADCHF with iv administration of vessel dilator", "type": "in vivo, human", "source_text": "This example describes a study to examine whether VSDL administration to ADCHF patients will be safe and induce improvements in haemodynamic parameters, as well as renal, natriuretic and diuretic parameters, whilst regulating plasma volume and BP within clinically acceptable ranges and without seriously adverse side effects.\nVSDL in the form of a white lyophilised powder (synthesised using standard protein synthesis method by Auspep Pty Ltd, Parkville, VIC, Australia), stored in an ultra low freezer (−80° C.), was reconstituted in a vial with 10 ml of 0.9% saline (preservative free) and aseptically transferred into a 20 ml syringe (that connects to a patient cannula) before use.\nInitially, an iv dose of 12.5 ng/kg/min was infused into test subjects for 60 minutes with a syringe driver (Alaris Asena GS syringe driver; C are Fusion Corporation, San Diego, Calif., United States of America). This “safety dose” was chosen merely to trial the subjects for any adverse effects. Subsequently, a dose of 25 ng/kg/min (as infused for 60 minutes) was trialled. Additionally, a trial will be conducted with a dose of 50 ng/kg/min (for 60 minutes).\nTest adult subjects, both male and female, showing either acute exacerbations of chronic CHF or ADCHF (ie in individuals who had not previously shown heart failure), were recruited for the study. The following inclusion and exclusion criteria were applied:\nIn order to be eligible, a subject must have chronic CHF or ADCHF (NYHA class III—NYHA class IV) defined as: • 1. Showing dyspnoea at rest or dyspnoea with minimal activity (ie difficulty breathing at rest while sitting, or difficulty breathing while lying flat or with one pillow, or difficulty breathing with minimal activity such as talking, eating); AND • 2. Showing at least one of the following signs: • Tachypnoea with respiratory rate >20 breaths per minute, OR • Pulmonary congestion/oedema with rales or crackles/crepitations at least a third above lung bases; AND • 3. At least one of the following objective measures: • Showing, by chest X-ray, pulmonary oedema/congestions OR • Circulating B-type natriuretic peptide (BNP) concentration of ≧400 pg/ml or circulating NT-proBNP concentration of ≧1000 pg/ml at presentation, OR • PCWP >20 mmHg OR • Showing systolic dysfunction within the last 12 months (EF<50%) as determined by TTE, nuclear testing, cardiac MRI or ventricular angiography); and be: • 4. Male and/or female, 18 years or older; and • 5. If a woman of child bearing potential, testing negative to 13-hCG. Exclusion Criteria: • 1. Evidence in the ED for Myocardial Infarction (MI) or high risk acute coronary syndrome within past 6 weeks, as determined by creatinine kinase (CK)/creatinine kinase muscle-brain isoenzyme (CK-MB) ≧2 times upper limit of normal or elevation of Troponin T at baseline >0.1 or as determined by Trans-Thoracic […] (TTE); • 2. Hypotension (SBP <90 mmHg), cardiogenic shock, volume depletion; • 3. Persistent, uncontrolled hypertension (SBP >180 mm Hg); • 4. Subjects with the presence of any CMR contra-indication (including PPM, cerebral aneurysm clips or non-MM approved metallic implant) are excluded from any MRI study component only; • 5. Congenital heart defects (including Ventricular Septal Defect, Atrial Septal Defect, Patent Ductus Arteriosus, Tetralogy of Fallot, and Tricuspid Atresia); • 6. Cardiac surgery within past 4 weeks; • 7. Diastolic heart failure (preserved left ventricular function—determined by known history, ie E:E prime ratio>15); • 8. Severe valvular heart disease: Aortic Stenosis <1.0 cm^2, any Idiopathic hypertrophic subaortic stenosis or Hypertrophic Obstructive Cardiomyopathy, acute Aortic Regurgitation grade 3 or 4 and Mitral Regurgitation grade 3 or 4; • 9. History of cerebrovascular accident (within past 4 weeks) as determined by MM or Computerised Tomography (CT) Scan; • 10. […]"}, "[3]": {"assay": "Example 2: estimation of baseline and Cmax for VSDL following infusion (blood samples, mass spectroscopy)", "type": "in vivo, human", "details": "for half-life: read-out: estimated half-life (t1/2)", "source_text": "Following the surprising finding that beneficial effects for the treatment of chronic CHF can be achieved with doses that are much less than that which had been proposed, a study was undertaken to estimate the baseline levels of VSDL and Cmax (ie the peak VSDL concentration that is achieved) following infusion.\nThe baseline VSDL concentration (ie endogenous level) was estimated from an identical sample taken prior to infusion (ie “predose”)."}, "[4]": {"assay": "Expected increase in total circulating VSDL at originally selected doses", "type": "in vivo, human", "procedure": "Since it was thought that subjects suffering significant CHF are unable to produce adequate endogenous amounts of natriuretic peptides to compensate for congestion, the present applicant had selected doses of exogenous VSDL infusion of 50 ng/kg/min, 100 ng/kg/min and 200 ng/kg/min for 60 minutes to ascertain the approximate amounts of exogenous VSDL required by late NHYA class III—NYHA class IV patients to reinstate homeostasis. Such doses were expected to result in an approximately 2-fold, 4-fold and 8-fold increase in total circulating VSDL, respectively. Further, the present applicant had particularly proposed an exogenous dose of VSDL at <100 ng/kg/min (for 60 mins) for the treatment of chronic CHF or ADCHF as a safe and effective dosage, since it has been identified that the release rate from the heart of VSDL with physiological stimuli is about 138 ng/kg body weight per minute^16 and similar dosages have been previously observed to cause a marked natriuresis and diuresis in healthy humans^17, 18 and, also, improved haemodynamic and renal parameters in persons with stable NYHA class III chronic CHF^10. The molar equivalent of the 100 ng/kg body weight dose (for 60 mins) is 26 pmol/kg body weight (for 60 mins). […] In particular, at 12.5 ng/kg/min (for 60 mins) and 25 ng/kg/min (for 60 mins). […]"}, "[5]": {"system": "patients with chronic, but stable, New York Heart Association (NYHA) Class III CHF", "details": "cited from earlier work"}, "[6]": {"details": "25 ng/kg/min iv for 60 mins, 24 hrs post-infusion"}, "[7]": {"details": "25 ng/kg/min iv for 60 mins, Baseline"}, "[8]": {"details": "Subject #2, 12.5 ng/kg/min iv for 60 mins"}, "[9]": {"details": "Subject #3, 12.5 ng/kg/min iv for 60 mins"}, "[10]": {"details": "one subject, 25 ng/kg/min iv for 60 mins"}}, "note": "Like-named read-outs stand apart in the source and are kept apart here. No end group written: not given here.", "data": [{"substance": "B-type natriuretic peptide [BNP, reference compound]", "values": [{"measurement": "biological t1/2", "setting": "[1]; in vivo", "value": "< ½"}, {"measurement": "circulatory t1/2", "setting": "[1]; in vivo", "value": "~3.1", "unit": "min"}]}, {"substance": "EVVPPQVLSEPNEEAGAALSPLPEVPPWTGEVSPAQR [VSDL]", "values": [{"measurement": "safety risks seen by reviewers", "setting": "[2]; 12.5 ng/kg/min iv for 60 mins, three subjects", "value": "no safety risks"}, {"measurement": "CK", "setting": "[2]; [6]", "value": 156, "unit": "U/L"}, {"measurement": "CK-MB", "setting": "[2]; [6]", "value": 1.3, "unit": "µg/L"}, {"measurement": "Troponin T", "setting": "[2]; [6]", "value": "<0.02", "unit": "µg/L"}, {"measurement": "CK", "setting": "[2]; [7]", "value": 188, "unit": "U/L"}, {"measurement": "CK-MB", "setting": "[2]; [7]", "value": 2.0, "unit": "µg/L"}, {"measurement": "Troponin T", "setting": "[2]; [7]", "value": "<0.02", "unit": "µg/L"}, {"measurement": "clinical state during the 24 hours following the infusion", "setting": "[2]; [8]", "value": "stable during the 24 hours"}, {"measurement": "side-effects", "setting": "[2]; [8]", "value": "global dyskinesis and no side-"}, {"measurement": "tolerability of infusion", "setting": "[2]; [8]", "value": "infusion was well tolerated by"}, {"measurement": "clinical state during and within 24 hours following the infusion", "setting": "[2]; [9]", "value": "clinically stable during this"}, {"measurement": "tolerability of infusion", "setting": "[2]; [9]", "value": "subject tolerated the infusion"}, {"measurement": "safety risks seen by reviewers", "setting": "[2]; [10]", "value": "no safety risks"}, {"measurement": "side effects", "setting": "[2]; [10]", "value": "no side effects"}, {"measurement": "tolerability of infusion", "setting": "[2]; [10]", "value": "well tolerated"}, {"measurement": "Corrected Concentration", "setting": "[3]; 0.5 hrs following infusion", "value": 4.376, "unit": "ng/mL"}, {"measurement": "Corrected Concentration", "setting": "[3]; 1 hrs following infusion", "value": 4.376, "unit": "ng/mL"}, {"measurement": "Corrected Concentration", "setting": "[3]; 1.5 hrs following infusion", "value": 1.176, "unit": "ng/mL"}, {"measurement": "Corrected Concentration", "setting": "[3]; 2 hrs following infusion", "value": 0.556, "unit": "ng/mL"}, {"measurement": "Corrected Concentration", "setting": "[3]; 3 hrs following infusion", "value": 0.136, "unit": "ng/mL"}, {"measurement": "Corrected Concentration", "setting": "[3]; 4 hrs following infusion", "value": 0.061, "unit": "ng/mL"}, {"measurement": "Corrected Concentration", "setting": "[3]; 5 hrs following infusion", "value": 0.022, "unit": "ng/mL"}, {"measurement": "Corrected Concentration", "setting": "[3]; 6 hrs following infusion", "value": 0.005, "unit": "ng/mL"}, {"measurement": "Corrected Concentration", "setting": "[3]; 12 hrs following infusion", "value": 0.018, "unit": "ng/mL"}, {"measurement": "Corrected Concentration", "setting": "[3]; Predose", "value": 0.024, "unit": "ng/mL"}, {"measurement": "half-life", "setting": "[3]; human, blood, intravenous, terminal elimination rate using the LOQ of 0.2 ng/ml", "value": 20, "unit": "min"}, {"measurement": "half-life", "setting": "[3]; human, blood, intravenous, using the point just below the LOQ, excluding and including the Cmax values", "value": "25 to 30", "unit": "min"}, {"measurement": "Tmax", "setting": "[3]; human, blood, intravenous, CHF patient (NYHA class III), following infusion", "value": 30, "unit": "min"}, {"measurement": "level at 0.5 h", "setting": "[3]; human, blood, iv, 0.5 hrs following infusion, read-out: Concentration", "value": 4.4, "unit": "ng/mL"}, {"measurement": "level at 1 h", "setting": "[3]; human, blood, iv, 1 hrs following infusion, read-out: Concentration", "value": 4.4, "unit": "ng/mL"}, {"measurement": "level at 1.5 h", "setting": "[3]; human, blood, iv, 1.5 hrs following infusion, read-out: Concentration", "value": 1.2, "unit": "ng/mL"}, {"measurement": "level at 2 h", "setting": "[3]; human, blood, iv, 2 hrs following infusion, read-out: Concentration", "value": 0.58, "unit": "ng/mL"}, {"measurement": "level at 3 h", "setting": "[3]; human, blood, iv, 3 hrs following infusion, read-out: Concentration", "value": 0.16, "unit": "ng/mL"}, {"measurement": "level at 4 h", "setting": "[3]; human, blood, iv, 4 hrs following infusion, read-out: Concentration", "value": 0.085, "unit": "ng/mL"}, {"measurement": "level at 5 h", "setting": "[3]; human, blood, iv, 5 hrs following infusion, read-out: Concentration", "value": 0.046, "unit": "ng/mL"}, {"measurement": "level at 6 h", "setting": "[3]; human, blood, iv, 6 hrs following infusion, read-out: Concentration", "value": 0.029, "unit": "ng/mL"}, {"measurement": "level at 12 h", "setting": "[3]; human, blood, iv, 12 hrs following infusion, read-out: Concentration", "value": 0.042, "unit": "ng/mL"}, {"measurement": "Cmax", "setting": "[3]; human, intravenous, CHF patient (NYHA class III), blood, following infusion, baseline-corrected", "value": 4.38, "unit": "ng/mL"}, {"measurement": "elimination of VSDL from the blood stream", "setting": "[3]; measured concentration profile (FIG. 3)", "value": "does not clearly follow first order kinetics"}, {"measurement": "baseline (endogenous) VSDL concentration", "setting": "[3]; predose blood sample, CHF patient (NYHA class III)", "value": 0.024, "unit": "ng/mL"}, {"measurement": "expected increase in total circulating VSDL", "setting": "[4]; 100 ng/kg/min for 60 minutes", "value": "~4", "unit": "fold"}, {"measurement": "expected increase in total circulating VSDL", "setting": "[4]; 200 ng/kg/min for 60 minutes", "value": "~8", "unit": "fold"}, {"measurement": "symptomatic side effects", "setting": "[5]", "value": "without any symptomatic side effects"}, {"measurement": "biological t1/2", "setting": "[1]; previously reported", "value": "> 6", "unit": "hours"}, {"measurement": "circulatory t1/2", "setting": "[1]; previously reported", "value": 120, "unit": "min"}]}]}
